Columns and labels:
[1] = in vivo
Protocol: The serum calcium was measured at the start, after 12 weeks, after 24 weeks, after 48 weeks, and after 72 weeks. Serum calcium standard value: 8.4 to 10.4 mg/dL. The standard concomitant drug (610 mg of calcium, 400 IU of vitamin D3, and 30 mg of magnesium) was taken once a day after dinner from the time of consent to the end of the trial.

[2] = in vivo; remark: listed apart in the source
Protocol: The Lumbar spine bone mineral density and occurrence of bone fractures were checked as bone assessments. For the Lumbar spine bone mineral density, the bone density of the second to fourth lumbar spine was measured at the start and every six months thereafter using dual-energy x-ray absorptiometry (DXA). For the frequency of bone fractures, x-rays were taken from the front and side of the fourth thoracic to the fifth lumbar spine at the start and every six months thereafter, and new vertebral fractures were assessed by comparison of the roentgen films at the start and at each point in time thereafter using the method of Genant et al. (Non-patent Reference 14) as a reference. In locations other than the vertebrae, fractures were evaluated by checking by roentgen films. Blood samples were also taken from all patients at the beginning and during administration, and the general laboratory test values, including the calcium concentration, were measured. The administration period in high-risk patients (DXA and new vertebral fractures were assessed collectively at the center; fractures of other than vertebrae were assessed by the investigator based on the roentgen films) was 85.1±20.8 weeks in the 5 unit group and 83.7±19.8 weeks in the 100 unit group. […] The administration period in low-risk patients was 72.7±19.4 weeks in the 5 unit group and 88.3±21.3 weeks in the 100 unit group.

[3] = test system: high-risk patients diagnosed with primary osteoporosis; assay: Lumbar spine bone density by DXA, Working Example 2; format: in vivo, human; details: 200 units once a week; for Change in bone density (%): patients taking glucocorticoid
Protocol: For the bone density of the lumbar spine, the density of the second to fourth lumbar spine was measured at the start and every 24 weeks thereafter using dual-energy x-ray absorptiometry (DXA).

[4] = test system: high-risk patients diagnosed with primary osteoporosis; assay: Femur (neck, proximal) bone density by DXA, Working Example 2; format: in vivo, human; details: 200 units once a week; for Change in bone density (%): patients taking glucocorticoid
Protocol: For the bone density of the femur, only the left side of the proximal part of the femur, rotated 20°, was measured at the start and every 24 weeks thereafter using dual-energy x-ray absorptiometry (DXA).

[5] = test system: patients diagnosed with primary osteoporosis; assay: New vertebral fractures by x-ray (method of Genant), Working Example 1; format: in vivo, human; details: for Incidence (%) / No. of fractures / No. with fractures: new vertebral fractures every 26 weeks; for No. of vertebral fractures / No. with fractures (persons): new vertebral fractures
Protocol: Both the 5 and 100 unit groups were administered two tablets of a calcium agent (containing 500 mg of precipitated calcium carbonate [200 mg as calcium] per tablet) once a day.
The osteoporosis patients were classified as condition shown in Table 1 based on the bone fracture risk factors present, as in Non-patent Reference 13, and compared. High-risk patients were defined as having all three factors involving age, prevalent vertebral fractures, and bone density or bone atrophy; low-risk patients were defined as other than the above.

[6] = high-risk patients, 5 units once a week, After 26 W
[7] = high-risk patients, 5 units once a week, After 52 W
[8] = high-risk patients, 5 units once a week, After 78 W
[9] = high-risk patients, 5 units once a week, After 104 W
[10] = high-risk patients, 5 units once a week, After 130 W
[11] = high-risk patients, 100 units once a week, After 26 W
[12] = high-risk patients, 100 units once a week, After 52 W
[13] = high-risk patients, 100 units once a week, After 78 W
[14] = high-risk patients, 100 units once a week, After 104 W
[15] = high-risk patients, 100 units once a week, After 130 W
[16] = low-risk patients, 5 units once a week, After 26 W
[17] = low-risk patients, 5 units once a week, After 52 W
[18] = low-risk patients, 5 units once a week, After 78 W
[19] = low-risk patients, 5 units once a week, After 104 W
[20] = low-risk patients, 5 units once a week, After 130 W
[21] = low-risk patients, 100 units once a week, After 26 W
[22] = low-risk patients, 100 units once a week, After 52 W
[23] = low-risk patients, 100 units once a week, After 78 W
[24] = low-risk patients, 100 units once a week, After 104 W
[25] = low-risk patients, 100 units once a week, After 130 W
[26] = high-risk patients, 5 units once a week
[27] = high-risk patients, 100 units once a week
[28] = low-risk patients, 5 units once a week
[29] = low-risk patients, 100 units once a week

teriparatide acetate
Corrected serum calcium, Max [1]: 10.0 mg/dL
Manifestation of hypercalcemia or hypercalciuria [1]: No manifestation of hypercalcemia or hypercalciuria was found
Patients with serum calcium exceeding 11.0 mg/mL [1]: not even one patient
Safety in terms of the serum calcium across renal function groups [1]: equivalent safety in terms of the serum calcium in all groups
Hypercalcemia [2]: did not cause hypercalcemia at either dose
Tendency for the serum calcium to rise [2]: no tendency for the serum calcium to rise was seen
Percentage change in bone density (%) ([3]; 24 W, history of Alfacalcidol): 3.11%
Percentage change in bone density (%) ([3]; 24 W, history of Calcitriol): 3.50%
Percentage change in bone density (%) ([3]; 24 W, history of Calcium L-aspartate): 3.78%
Percentage change in bone density (%) ([3]; 24 W, history of Calcium lactate): 1.96%
Percentage change in bone density (%) ([3]; 24 W, history of Elcatonin): 3.95%
Percentage change in bone density (%) ([3]; 24 W, history of Menatetrenone): 2.70%
Percentage change in bone density (%) ([3]; 24 W, history of Raloxifene hydrochloride): 1.77%
Change in bone density (%) ([3]; 24 W): 3.50%
Percentage change in bone density (%) ([3]; 48 W, history of Alfacalcidol): 5.47%
Percentage change in bone density (%) ([3]; 48 W, history of Calcitriol): 4.40%
Percentage change in bone density (%) ([3]; 48 W, history of Calcium L-aspartate): 6.16%
Percentage change in bone density (%) ([3]; 48 W, history of Calcium lactate): 3.45%
Percentage change in bone density (%) ([3]; 48 W, history of Elcatonin): 3.59%
Percentage change in bone density (%) ([3]; 48 W, history of Menatetrenone): 3.04%
Percentage change in bone density (%) ([3]; 48 W, history of Raloxifene hydrochloride): 4.96%
Change in bone density (%) ([3]; 48 W): 5.97%
Percentage change in bone density (%) ([3]; 72 W, history of Alfacalcidol): 6.47%
Percentage change in bone density (%) ([3]; 72 W, history of Calcitriol): 6.38%
Percentage change in bone density (%) ([3]; 72 W, history of Calcium L-aspartate): 5.85%
Percentage change in bone density (%) ([3]; 72 W, history of Calcium lactate): 4.93%
Percentage change in bone density (%) ([3]; 72 W, history of Elcatonin): 5.36%
Percentage change in bone density (%) ([3]; 72 W, history of Menatetrenone): 4.32%
Percentage change in bone density (%) ([3]; 72 W, history of Raloxifene hydrochloride): 4.59%
Change in bone density (%) ([3]; 72 W): 6.82%
Percentage change in bone density (%) ([4]; Neck of femur, 24 W, history of Alfacalcidol): 1.64%
Percentage change in bone density (%) ([4]; Neck of femur, 24 W, history of Calcitriol): −0.60%
Percentage change in bone density (%) ([4]; Neck of femur, 24 W, history of Calcium L-aspartate): 1.44%
Percentage change in bone density (%) ([4]; Neck of femur, 24 W, history of Calcium lactate): 0.30%
Percentage change in bone density (%) ([4]; Neck of femur, 24 W, history of Elcatonin): 1.62%
Percentage change in bone density (%) ([4]; Neck of femur, 24 W, history of Menatetrenone): 0.72%
Percentage change in bone density (%) ([4]; Neck of femur, 24 W, history of Raloxifene hydrochloride): 0.21%
Change in bone density (%) ([4]; Neck of femur, 24 W): 2.53%
Percentage change in bone density (%) ([4]; Neck of femur, 48 W, history of Alfacalcidol): 0.85%
Percentage change in bone density (%) ([4]; Neck of femur, 48 W, history of Calcitriol): −4.03%
Percentage change in bone density (%) ([4]; Neck of femur, 48 W, history of Calcium L-aspartate): 1.88%
Percentage change in bone density (%) ([4]; Neck of femur, 48 W, history of Calcium lactate): −4.35%
Percentage change in bone density (%) ([4]; Neck of femur, 48 W, history of Elcatonin): 0.72%
Percentage change in bone density (%) ([4]; Neck of femur, 48 W, history of Menatetrenone): −3.18%
Percentage change in bone density (%) ([4]; Neck of femur, 48 W, history of Raloxifene hydrochloride): 1.03%
Change in bone density (%) ([4]; Neck of femur, 48 W): 2.79%
Percentage change in bone density (%) ([4]; Neck of femur, 72 W, history of Alfacalcidol): 2.19%
Percentage change in bone density (%) ([4]; Neck of femur, 72 W, history of Calcitriol): −3.53%
Percentage change in bone density (%) ([4]; Neck of femur, 72 W, history of Calcium L-aspartate): 4.17%
Percentage change in bone density (%) ([4]; Neck of femur, 72 W, history of Calcium lactate): −2.53%
Percentage change in bone density (%) ([4]; Neck of femur, 72 W, history of Elcatonin): 3.15%
Percentage change in bone density (%) ([4]; Neck of femur, 72 W, history of Menatetrenone): −0.78%
Percentage change in bone density (%) ([4]; Neck of femur, 72 W, history of Raloxifene hydrochloride): −0.51%
Change in bone density (%) ([4]; Neck of femur, 72 W): 2.44%
Percentage change in bone density (%) ([4]; Proximal femur, 24 W, history of Alfacalcidol): 2.77%
Percentage change in bone density (%) ([4]; Proximal femur, 24 W, history of Calcitriol): −1.40%
Percentage change in bone density (%) ([4]; Proximal femur, 24 W, history of Calcium L-aspartate): 1.76%
Percentage change in bone density (%) ([4]; Proximal femur, 24 W, history of Calcium lactate): 1.78%
Percentage change in bone density (%) ([4]; Proximal femur, 24 W, history of Elcatonin): 3.86%
Percentage change in bone density (%) ([4]; Proximal femur, 24 W, history of Menatetrenone): 0.60%
Percentage change in bone density (%) ([4]; Proximal femur, 24 W, history of Raloxifene hydrochloride): 2.44%
Change in bone density (%) ([4]; Proximal femur, 24 W): 2.46%
Percentage change in bone density (%) ([4]; Proximal femur, 48 W, history of Alfacalcidol): 2.31%
Percentage change in bone density (%) ([4]; Proximal femur, 48 W, history of Calcitriol): −1.05%
Percentage change in bone density (%) ([4]; Proximal femur, 48 W, history of Calcium L-aspartate): 2.28%
Percentage change in bone density (%) ([4]; Proximal femur, 48 W, history of Calcium lactate): −1.68%
Percentage change in bone density (%) ([4]; Proximal femur, 48 W, history of Elcatonin): 3.44%
Percentage change in bone density (%) ([4]; Proximal femur, 48 W, history of Menatetrenone): −0.56%
Percentage change in bone density (%) ([4]; Proximal femur, 48 W, history of Raloxifene hydrochloride): 2.26%
Change in bone density (%) ([4]; Proximal femur, 48 W): 3.39%
Percentage change in bone density (%) ([4]; Proximal femur, 72 W, history of Alfacalcidol): 2.31%
Percentage change in bone density (%) ([4]; Proximal femur, 72 W, history of Calcitriol): −0.04%
Percentage change in bone density (%) ([4]; Proximal femur, 72 W, history of Calcium L-aspartate): 3.69%
Percentage change in bone density (%) ([4]; Proximal femur, 72 W, history of Calcium lactate): −3.20%
Percentage change in bone density (%) ([4]; Proximal femur, 72 W, history of Elcatonin): 4.41%
Percentage change in bone density (%) ([4]; Proximal femur, 72 W, history of Menatetrenone): −1.40%
Percentage change in bone density (%) ([4]; Proximal femur, 72 W, history of Raloxifene hydrochloride): 3.03%
Change in bone density (%) ([4]; Proximal femur, 72 W): 3.06%
Incidence (%) [5, 6]: 9.5%
No. of fractures [5, 6]: 8
No. with fractures [5, 6]: 6
Incidence (%) [5, 7]: 11.1%
No. of fractures [5, 7]: 9
No. with fractures [5, 7]: 7
Incidence (%) [5, 8]: 7.0%
No. of fractures [5, 8]: 4
No. with fractures [5, 8]: 4
Incidence (%) [5, 9]: 2.9%
No. of fractures [5, 9]: 1
No. with fractures [5, 9]: 1
No. of fractures [5, 10]: 0
No. with fractures [5, 10]: 0
Incidence (%) [5, 11]: 2.0%
No. of fractures [5, 11]: 1
No. with fractures [5, 11]: 1
Incidence (%) [5, 12]: 2.0%
No. of fractures [5, 12]: 1
No. with fractures [5, 12]: 1
Incidence (%) [5, 13]: 2.2%
No. of fractures [5, 13]: 1
No. with fractures [5, 13]: 1
No. of fractures [5, 14]: 0
No. with fractures [5, 14]: 0
No. of fractures [5, 15]: 0
No. with fractures [5, 15]: 0
No. of fractures [5, 16]: 0
No. with fractures [5, 16]: 0
Incidence (%) [5, 17]: 4.8%
No. of fractures [5, 17]: 1
No. with fractures [5, 17]: 1
No. of fractures [5, 18]: 0
No. with fractures [5, 18]: 0
No. of fractures [5, 19]: 0
No. with fractures [5, 19]: 0
No. of fractures [5, 20]: 0
No. with fractures [5, 20]: 0
Incidence (%) [5, 21]: 8.3%
No. of fractures [5, 21]: 2
No. with fractures [5, 21]: 1
No. of fractures [5, 22]: 0
No. with fractures [5, 22]: 0
No. of fractures [5, 23]: 0
No. with fractures [5, 23]: 0
No. of fractures [5, 24]: 0
No. with fractures [5, 24]: 0
No. of fractures [5, 25]: 0
No. with fractures [5, 25]: 0
No. of vertebral fractures [5, 26]: 22
No. with fractures (persons) [5, 26]: 13 persons
No. of vertebral fractures [5, 27]: 3
No. with fractures (persons) [5, 27]: 3 persons
No. of vertebral fractures [5, 28]: 1
No. with fractures (persons) [5, 28]: 1 persons
No. of vertebral fractures [5, 29]: 2
No. with fractures (persons) [5, 29]: 1 persons

From US20140249084A1, “PTH-CONTAINING THERAPEUTIC/PROPHYLACTIC AGENT FOR OSTEOPOROSIS, CHARACTERIZED IN THAT PTH IS ADMINISTERED ONCE A WEEK IN A UNIT DOSE OF 100 TO 200 UNITS” (ASAHI KASEI PHARMA CORPORATION, priority 2009, published 2014)
